Measurements taken from ChEMBL document CHEMBL1201862, “PubChem BioAssay data set” (2004).
Calls of active or inactive are those of the source.

Legend:
[1] = target: 1-phosphatidylinositol 4,5-bisphosphate phosphodiesterase gamma-1 (Homo sapiens, UniProt P19174); experiment: Counterscreen for inhibitors of phospholipase C isozymes (PLC-B3): Fluorescence-based biochemical high throughput dose response assay to identify inhibitors of phospholipase C isozymes (PLC-gamma1).
[2] = target: 1-phosphatidylinositol 4,5-bisphosphate phosphodiesterase beta-3 (Homo sapiens, UniProt Q01970); experiment: Fluorescence-based biochemical high throughput dose response assay to identify inhibitors of phospholipase C isozymes (PLC-B3).
fMet-Leu-Phe receptor = fMet-Leu-Phe receptor (Homo sapiens, UniProt P21462); experiment: formyl peptide receptor binders – dose response (AID 519); assay type: functional
H9c2 = experiment: cells; assay type: functional, cell-based; conditions: Rattus norvegicus, H9c2, Myocardium
[3] = target: Histone-lysine N-methyltransferase NSD2 (Homo sapiens, UniProt O96028); assay type: biochemical
[4] = target: T1, Heat shock factor protein 1 (Mus musculus, UniProt P38532); experiment: enhancement of HSF1-driven luciferase signal – cell-based, NIH3T3, luminescence, dose retest, confirmation (AID 435004); assay type: functional;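 note: stress induced by proteasome inhibitor MG132 added 30 min after compound; luciferase reporter driven by HSF1 response element in NIH3T3 cells; actives raise luminescence as potentiators of the MG132 stress response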
T1 sequence (P38532 whole entry): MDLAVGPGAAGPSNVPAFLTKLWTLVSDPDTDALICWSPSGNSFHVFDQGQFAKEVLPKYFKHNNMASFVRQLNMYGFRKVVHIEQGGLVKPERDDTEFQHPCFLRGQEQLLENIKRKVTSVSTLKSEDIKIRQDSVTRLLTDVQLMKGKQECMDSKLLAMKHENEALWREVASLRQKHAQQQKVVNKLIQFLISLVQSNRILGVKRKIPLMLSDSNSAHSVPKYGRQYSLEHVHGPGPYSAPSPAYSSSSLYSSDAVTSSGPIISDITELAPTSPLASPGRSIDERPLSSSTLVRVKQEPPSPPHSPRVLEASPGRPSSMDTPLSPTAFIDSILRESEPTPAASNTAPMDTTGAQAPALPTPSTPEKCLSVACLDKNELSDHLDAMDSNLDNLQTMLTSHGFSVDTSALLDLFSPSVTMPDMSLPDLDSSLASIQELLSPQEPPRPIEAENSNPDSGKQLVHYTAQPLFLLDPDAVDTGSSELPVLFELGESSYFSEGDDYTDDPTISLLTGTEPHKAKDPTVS

cells [5] = assay type: functional, cell-based
[6] = target: T2, Trace amine-associated receptor 1 (Homo sapiens, UniProt Q96RJ0); experiment: Fluorescence-based cell-based high throughput dose response assay to identify agonists of the human trace amine associated receptor 1 (TAAR1).; assay type: functional
T2 sequence (Q96RJ0 whole entry): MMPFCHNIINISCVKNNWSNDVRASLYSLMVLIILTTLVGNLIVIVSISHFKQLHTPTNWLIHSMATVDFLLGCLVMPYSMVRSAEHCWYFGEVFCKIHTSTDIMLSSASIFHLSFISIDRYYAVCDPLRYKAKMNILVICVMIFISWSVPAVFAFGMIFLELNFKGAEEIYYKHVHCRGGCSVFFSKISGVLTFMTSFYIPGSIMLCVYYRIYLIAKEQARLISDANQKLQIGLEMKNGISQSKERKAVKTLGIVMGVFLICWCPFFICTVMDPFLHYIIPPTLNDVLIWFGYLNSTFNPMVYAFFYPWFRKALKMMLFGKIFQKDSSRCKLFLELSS

[7] = target: T2, Trace amine-associated receptor 1; experiment: Counterscreen for agonists of the human trace amine associated receptor 1 (hTAAR1): Fluorescence-based cell-based high throughput dose response assay to identify hTAAR1 agonist that also desensitize TAAR1 receptor response.; assay type: functional
cells [8] = assay type: functional, cell-based; remark: listed apart in the source
[9] = activation of miR-122 Renilla sensor silencing – cell-based, Huh7 psiCHECK-miR122, Renilla luciferase, cherry-picked, dose response (AID 651956); assay type: functional;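 note: huh7 hepatoma cells stably carrying a psiCHECK-2 miR-122 sensor plasmid; renilla luciferase signal reporting endogenous miR-122 activity after 48 h compound exposure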
[10] = general mammalian cell viability loss – activator set, cherry-pick, cytotoxicity control for miR-122 modulator project, dose response (AID 720690); assay type: functional, cell-based;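 note: HEK293T human cells scored for general mammalian cytotoxicity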
Paired box protein Pax-8 = Paired box protein Pax-8 (Homo sapiens, UniProt Q06710); experiment: PAX8 transcriptional activity inhibition in RMG-I – RMG-I cells, luciferase, cherry-pick, dose response (AID 687027); assay type: functional, cell-based;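 note: luciferase reporter driven by Pax8 target thyroperoxidase promoter measured by SteadyGlo luminescence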
[11] = OVCAR-3 cell viability loss – plate reader, dry powder samples, PAX8 inhibitor project, dose response (AID 743044); assay type: functional, cell-based
[12] = IGROV1 cell killing – plate reader, dry powder samples, PAX8 inhibitor project, dose response (AID 743043); assay type: functional, cell-based; conditions: IGROV-1
[13] = general cell-killing toxicity readout – plate reader, dry powder samples, cytotoxicity control for PAX8 inhibitor project, dose response (AID 743021); assay type: functional, cell-based
[14] = OVCAR8 cell viability loss – plate reader, dry powder samples, PAX8 project, dose response (AID 743197); assay type: functional, cell-based; conditions: OVCAR-8
[15] = viability loss in HepG2 hepatoma cells – cell-based, cherry-picks, set 5, cytotoxicity control, dose response (AID 1053118); assay type: functional
[16] = viability loss in HEK293 kidney cells – cell-based, cherry-picks, set 5, cytotoxicity control, dose response (AID 1053117); assay type: functional
[17] = viability loss in A549 lung cancer cells – cell-based, cherry-picks, […], cytotoxicity control, dose response (AID 1053119); assay type: functional
[18] = P. falciparum Dd2 growth inhibitors, dose response, SYBR Green, cherry-picked samples (AID 1159567); assay type: functional, cell-based
[19] = toxicity to human hepatoma HepG2 cells – cell-based, cherry-picked samples, cytotoxicity control, dose response (AID 1159577); assay type: functional
[20] = target: Potassium channel subfamily K member 9 (Homo sapiens, UniProt Q9NPC2); experiment: KCNK9 flux blockade, concentration-response – cell-based, FluxOR thallium flux, selectivity assay for TASK1 inhibitor project, SAR follow-up (AID 652211); assay type: functional;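 note: potency is for inhibitors of the channel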
[21] = blockers of FN fibrillogenesis by fibroblasts – AH1F cells, Alexa488-FN fluorescence, cherry-picks, dose response (AID 1035475); assay type: functional, cell-based
[22] = target: T1, Heat shock factor protein 1; experiment: decrease of HSF1-responsive luciferase luminescence – cell-based, NIH3T3, dose retest, confirmation (AID 2382); assay type: functional;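 note: NIH3T3 fibroblasts with HSF1-driven luciferase reporter stressed by proteasome inhibitor MG132; luminescence from HSF1-driven luciferase expression after 8 hours of MG132 stress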
[23] = target: T3, Replicative DNA helicase DnaB (Mycobacterium tuberculosis, UniProt P9WMR3); experiment: DnaB intein splicing inhibitors, dose response, biochemical, cell-free fluorescence (AID 449749); assay type: functional
T3 sequence (P9WMR3 whole entry): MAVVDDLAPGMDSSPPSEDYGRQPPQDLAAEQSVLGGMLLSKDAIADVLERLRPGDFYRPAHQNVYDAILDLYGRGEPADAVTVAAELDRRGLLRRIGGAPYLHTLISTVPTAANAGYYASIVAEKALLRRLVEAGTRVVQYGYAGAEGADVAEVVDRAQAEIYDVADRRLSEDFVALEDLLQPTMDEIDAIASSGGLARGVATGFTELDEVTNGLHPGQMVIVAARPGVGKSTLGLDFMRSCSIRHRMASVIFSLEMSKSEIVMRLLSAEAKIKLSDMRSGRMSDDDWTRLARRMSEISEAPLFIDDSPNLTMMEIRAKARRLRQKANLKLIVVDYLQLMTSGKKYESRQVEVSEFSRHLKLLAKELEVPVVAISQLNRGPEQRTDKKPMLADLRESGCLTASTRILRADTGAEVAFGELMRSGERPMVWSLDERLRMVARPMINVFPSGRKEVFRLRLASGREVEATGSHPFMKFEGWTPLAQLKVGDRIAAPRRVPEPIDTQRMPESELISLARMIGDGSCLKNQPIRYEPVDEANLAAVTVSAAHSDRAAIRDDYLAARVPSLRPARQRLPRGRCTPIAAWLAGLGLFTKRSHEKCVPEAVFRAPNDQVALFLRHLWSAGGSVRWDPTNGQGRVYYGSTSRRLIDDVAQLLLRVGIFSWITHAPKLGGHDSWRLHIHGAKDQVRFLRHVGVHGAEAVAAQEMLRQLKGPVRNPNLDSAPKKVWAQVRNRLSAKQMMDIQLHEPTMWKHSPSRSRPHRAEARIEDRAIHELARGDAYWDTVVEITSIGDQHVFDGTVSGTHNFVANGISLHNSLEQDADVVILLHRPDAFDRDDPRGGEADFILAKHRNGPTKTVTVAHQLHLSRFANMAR

Protein RecA = target: T4, Protein RecA (Mycobacterium tuberculosis, UniProt P9WHJ3); experiment: Fluorescence Cell-Free Homogeneous Dose Retest to Identify Inhibitors of RecA-Intein Splicing Activity. [Related pubchem assays (depositor defined):AID2097, AID2223, AID489010, AID492950]; assay type: functional
T4 sequence (P9WHJ3 whole entry): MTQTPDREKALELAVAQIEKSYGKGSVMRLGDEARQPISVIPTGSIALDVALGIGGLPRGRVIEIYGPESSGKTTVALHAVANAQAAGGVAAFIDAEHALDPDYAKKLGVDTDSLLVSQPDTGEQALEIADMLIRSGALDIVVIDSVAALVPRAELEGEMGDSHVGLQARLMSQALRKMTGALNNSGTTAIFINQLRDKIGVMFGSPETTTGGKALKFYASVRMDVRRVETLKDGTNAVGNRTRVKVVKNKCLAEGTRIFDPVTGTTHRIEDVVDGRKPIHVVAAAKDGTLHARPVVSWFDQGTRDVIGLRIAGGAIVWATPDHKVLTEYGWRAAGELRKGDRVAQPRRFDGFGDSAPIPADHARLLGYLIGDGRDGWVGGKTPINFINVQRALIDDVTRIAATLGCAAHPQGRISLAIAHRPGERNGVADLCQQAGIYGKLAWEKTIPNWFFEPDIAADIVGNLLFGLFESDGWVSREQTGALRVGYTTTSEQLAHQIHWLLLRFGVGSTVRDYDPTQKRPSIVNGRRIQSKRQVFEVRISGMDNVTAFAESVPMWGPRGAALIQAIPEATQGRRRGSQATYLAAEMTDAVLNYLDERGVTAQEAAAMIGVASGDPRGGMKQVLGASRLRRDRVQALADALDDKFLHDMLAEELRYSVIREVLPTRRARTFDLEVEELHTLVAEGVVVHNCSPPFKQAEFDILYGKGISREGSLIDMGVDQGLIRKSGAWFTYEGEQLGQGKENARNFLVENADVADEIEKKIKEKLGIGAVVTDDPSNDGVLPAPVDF

[24] = target: T5, Sentrin-specific protease 8 (Homo sapiens, UniProt Q96LD8); assay type: functional
T5 sequence (Q96LD8 whole entry): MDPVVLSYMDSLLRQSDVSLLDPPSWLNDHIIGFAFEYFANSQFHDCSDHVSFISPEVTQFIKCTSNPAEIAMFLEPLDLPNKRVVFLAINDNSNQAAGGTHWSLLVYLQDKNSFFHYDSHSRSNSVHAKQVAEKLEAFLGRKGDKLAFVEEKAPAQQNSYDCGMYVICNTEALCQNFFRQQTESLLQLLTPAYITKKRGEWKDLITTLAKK

[25] = target: T5, Sentrin-specific protease 8; assay type: functional; remark: listed apart in the source
[26] = target: Tyrosyl-DNA phosphodiesterase 2 (Homo sapiens, UniProt O95551); experiment: potency against TDP2 phosphodiesterase activity – biochemical, epi absorbance, IC50, dose response (AID 743297)
Tyrosyl-DNA phosphodiesterase 2, sequence (O95551 whole entry): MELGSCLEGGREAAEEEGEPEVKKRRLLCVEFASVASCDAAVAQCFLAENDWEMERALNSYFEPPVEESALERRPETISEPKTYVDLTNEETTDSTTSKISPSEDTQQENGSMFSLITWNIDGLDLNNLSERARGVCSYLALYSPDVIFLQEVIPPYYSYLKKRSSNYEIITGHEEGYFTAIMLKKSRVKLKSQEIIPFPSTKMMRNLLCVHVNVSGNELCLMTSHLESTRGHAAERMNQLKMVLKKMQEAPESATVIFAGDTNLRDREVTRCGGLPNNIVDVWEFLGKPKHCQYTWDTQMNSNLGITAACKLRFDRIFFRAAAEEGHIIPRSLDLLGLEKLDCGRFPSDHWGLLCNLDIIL

fMet-Leu-Phe receptor, sequence (P21462 whole entry): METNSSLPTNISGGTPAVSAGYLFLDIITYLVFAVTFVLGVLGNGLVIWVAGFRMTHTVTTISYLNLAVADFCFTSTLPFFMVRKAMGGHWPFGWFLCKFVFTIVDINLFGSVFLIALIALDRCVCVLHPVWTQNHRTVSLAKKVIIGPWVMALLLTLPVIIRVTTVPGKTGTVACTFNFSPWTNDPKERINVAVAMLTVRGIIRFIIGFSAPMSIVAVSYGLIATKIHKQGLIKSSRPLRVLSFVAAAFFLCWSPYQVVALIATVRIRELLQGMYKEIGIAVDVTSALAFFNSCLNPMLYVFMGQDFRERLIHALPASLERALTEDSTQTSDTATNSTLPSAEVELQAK
1-phosphatidylinositol 4,5-bisphosphate phosphodiesterase beta-3, sequence (Q01970 whole entry): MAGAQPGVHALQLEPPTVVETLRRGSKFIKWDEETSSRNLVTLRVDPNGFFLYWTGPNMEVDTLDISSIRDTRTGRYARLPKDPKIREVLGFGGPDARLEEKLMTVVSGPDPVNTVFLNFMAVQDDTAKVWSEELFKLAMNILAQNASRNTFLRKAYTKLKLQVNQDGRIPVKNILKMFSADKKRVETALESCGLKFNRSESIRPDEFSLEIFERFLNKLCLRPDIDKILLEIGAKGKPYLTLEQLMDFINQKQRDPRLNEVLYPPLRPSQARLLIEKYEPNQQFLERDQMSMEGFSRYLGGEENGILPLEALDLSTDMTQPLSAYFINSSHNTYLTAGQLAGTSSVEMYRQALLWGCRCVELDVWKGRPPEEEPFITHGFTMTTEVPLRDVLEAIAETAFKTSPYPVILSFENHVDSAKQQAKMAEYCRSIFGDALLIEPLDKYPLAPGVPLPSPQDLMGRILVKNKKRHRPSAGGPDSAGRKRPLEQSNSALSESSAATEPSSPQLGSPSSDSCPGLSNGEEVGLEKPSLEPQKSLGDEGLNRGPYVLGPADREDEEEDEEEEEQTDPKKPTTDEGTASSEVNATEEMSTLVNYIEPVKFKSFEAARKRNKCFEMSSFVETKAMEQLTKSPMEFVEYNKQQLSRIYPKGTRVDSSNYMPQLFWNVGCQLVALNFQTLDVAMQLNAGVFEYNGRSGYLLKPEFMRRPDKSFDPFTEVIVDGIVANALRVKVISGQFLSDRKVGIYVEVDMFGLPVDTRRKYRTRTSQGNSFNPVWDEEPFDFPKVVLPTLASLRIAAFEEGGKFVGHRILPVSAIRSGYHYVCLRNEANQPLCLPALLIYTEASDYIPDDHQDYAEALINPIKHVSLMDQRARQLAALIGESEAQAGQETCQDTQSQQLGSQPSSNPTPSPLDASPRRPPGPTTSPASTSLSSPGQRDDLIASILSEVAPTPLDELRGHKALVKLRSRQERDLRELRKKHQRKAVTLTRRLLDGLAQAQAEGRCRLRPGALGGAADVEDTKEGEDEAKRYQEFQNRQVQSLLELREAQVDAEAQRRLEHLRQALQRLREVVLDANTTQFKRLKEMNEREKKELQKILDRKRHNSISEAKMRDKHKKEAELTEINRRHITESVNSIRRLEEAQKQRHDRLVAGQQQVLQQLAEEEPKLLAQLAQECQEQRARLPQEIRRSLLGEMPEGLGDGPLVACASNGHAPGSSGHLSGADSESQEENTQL
1-phosphatidylinositol 4,5-bisphosphate phosphodiesterase gamma-1, sequence (P19174 whole entry): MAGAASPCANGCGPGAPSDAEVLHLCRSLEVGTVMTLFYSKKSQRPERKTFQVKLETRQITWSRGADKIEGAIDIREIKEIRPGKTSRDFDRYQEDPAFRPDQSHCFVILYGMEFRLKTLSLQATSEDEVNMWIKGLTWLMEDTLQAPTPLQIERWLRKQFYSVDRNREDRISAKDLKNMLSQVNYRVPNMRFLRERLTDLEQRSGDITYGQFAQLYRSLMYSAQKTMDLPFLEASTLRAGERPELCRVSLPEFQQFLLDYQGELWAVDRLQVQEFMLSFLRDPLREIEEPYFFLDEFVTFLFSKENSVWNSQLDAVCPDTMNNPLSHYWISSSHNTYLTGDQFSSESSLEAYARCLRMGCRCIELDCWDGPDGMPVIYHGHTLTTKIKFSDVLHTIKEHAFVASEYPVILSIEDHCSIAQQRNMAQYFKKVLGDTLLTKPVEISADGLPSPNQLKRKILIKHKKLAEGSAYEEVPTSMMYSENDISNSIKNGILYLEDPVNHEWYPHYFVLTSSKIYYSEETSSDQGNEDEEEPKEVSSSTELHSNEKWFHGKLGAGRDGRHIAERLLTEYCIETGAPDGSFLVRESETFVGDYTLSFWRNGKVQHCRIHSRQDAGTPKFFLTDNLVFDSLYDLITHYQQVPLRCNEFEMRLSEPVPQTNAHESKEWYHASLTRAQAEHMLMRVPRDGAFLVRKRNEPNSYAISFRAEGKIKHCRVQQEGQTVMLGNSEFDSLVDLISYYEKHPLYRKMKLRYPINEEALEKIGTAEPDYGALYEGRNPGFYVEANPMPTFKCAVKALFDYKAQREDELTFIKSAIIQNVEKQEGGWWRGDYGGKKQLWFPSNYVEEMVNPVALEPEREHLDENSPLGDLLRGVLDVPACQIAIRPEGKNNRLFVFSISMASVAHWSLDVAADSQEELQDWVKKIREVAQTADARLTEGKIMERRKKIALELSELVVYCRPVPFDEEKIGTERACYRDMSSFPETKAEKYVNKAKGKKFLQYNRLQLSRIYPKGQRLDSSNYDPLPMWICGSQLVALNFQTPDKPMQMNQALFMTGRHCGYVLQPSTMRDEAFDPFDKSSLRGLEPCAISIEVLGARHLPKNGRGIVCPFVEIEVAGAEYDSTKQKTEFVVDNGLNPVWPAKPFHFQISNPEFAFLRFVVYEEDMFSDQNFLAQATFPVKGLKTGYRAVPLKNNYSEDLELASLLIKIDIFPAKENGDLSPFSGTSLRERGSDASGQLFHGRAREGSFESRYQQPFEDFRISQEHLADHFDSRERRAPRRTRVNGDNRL
Potassium channel subfamily K member 9, sequence (Q9NPC2 whole entry): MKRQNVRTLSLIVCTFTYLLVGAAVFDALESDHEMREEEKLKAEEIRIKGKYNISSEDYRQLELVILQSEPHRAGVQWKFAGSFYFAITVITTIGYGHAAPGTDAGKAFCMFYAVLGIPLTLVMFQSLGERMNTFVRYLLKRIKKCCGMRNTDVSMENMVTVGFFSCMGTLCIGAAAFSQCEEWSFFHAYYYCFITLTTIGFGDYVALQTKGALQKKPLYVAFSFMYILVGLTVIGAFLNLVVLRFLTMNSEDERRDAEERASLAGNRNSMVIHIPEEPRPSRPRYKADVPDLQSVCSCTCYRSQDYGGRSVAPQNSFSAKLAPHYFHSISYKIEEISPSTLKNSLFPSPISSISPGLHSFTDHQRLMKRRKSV
Histone-lysine N-methyltransferase NSD2, sequence (O96028 whole entry): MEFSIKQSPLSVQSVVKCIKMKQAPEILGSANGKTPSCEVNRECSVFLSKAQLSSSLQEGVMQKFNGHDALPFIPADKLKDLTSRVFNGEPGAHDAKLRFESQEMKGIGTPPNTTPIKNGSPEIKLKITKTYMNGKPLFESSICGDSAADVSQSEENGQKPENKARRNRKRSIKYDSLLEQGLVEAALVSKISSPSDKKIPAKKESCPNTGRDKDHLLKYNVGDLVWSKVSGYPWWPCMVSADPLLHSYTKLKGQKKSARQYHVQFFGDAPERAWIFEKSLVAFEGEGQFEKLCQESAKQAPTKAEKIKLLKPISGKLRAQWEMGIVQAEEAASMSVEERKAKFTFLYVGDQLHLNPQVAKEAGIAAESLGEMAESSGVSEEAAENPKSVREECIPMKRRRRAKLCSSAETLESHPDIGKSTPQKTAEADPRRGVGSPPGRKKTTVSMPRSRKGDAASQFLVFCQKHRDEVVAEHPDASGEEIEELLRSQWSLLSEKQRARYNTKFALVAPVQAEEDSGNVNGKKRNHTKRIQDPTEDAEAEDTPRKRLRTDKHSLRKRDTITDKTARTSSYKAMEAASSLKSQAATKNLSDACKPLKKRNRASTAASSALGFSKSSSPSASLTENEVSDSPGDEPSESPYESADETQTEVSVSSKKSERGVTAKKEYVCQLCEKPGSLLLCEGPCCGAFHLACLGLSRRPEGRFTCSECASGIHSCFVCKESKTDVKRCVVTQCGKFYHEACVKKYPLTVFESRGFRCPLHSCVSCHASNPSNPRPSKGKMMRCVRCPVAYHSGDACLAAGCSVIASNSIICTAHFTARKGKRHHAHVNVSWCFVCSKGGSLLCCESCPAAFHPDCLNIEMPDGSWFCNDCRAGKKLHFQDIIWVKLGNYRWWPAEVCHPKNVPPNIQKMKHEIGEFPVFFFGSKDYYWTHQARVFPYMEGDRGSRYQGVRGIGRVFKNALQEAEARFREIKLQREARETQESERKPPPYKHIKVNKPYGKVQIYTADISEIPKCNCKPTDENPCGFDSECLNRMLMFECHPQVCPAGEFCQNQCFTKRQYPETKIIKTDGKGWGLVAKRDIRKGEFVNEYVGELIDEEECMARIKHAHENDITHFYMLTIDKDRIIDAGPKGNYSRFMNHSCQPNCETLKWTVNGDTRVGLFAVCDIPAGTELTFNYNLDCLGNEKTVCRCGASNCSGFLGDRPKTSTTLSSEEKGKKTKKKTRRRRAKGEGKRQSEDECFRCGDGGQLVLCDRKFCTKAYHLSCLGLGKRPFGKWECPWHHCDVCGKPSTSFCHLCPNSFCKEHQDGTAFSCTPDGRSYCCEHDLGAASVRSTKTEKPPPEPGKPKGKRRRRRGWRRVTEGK

## O=S(=O)(c1ccc(Cl)cc1)c1cnc2ccccc2n1
[1]
  IC50: > 123 µM (inactive)
[2]
  IC50: > 123 µM (inactive)

## C/C(=C1/SC(N2CCCC2)=NC1=O)c1ccc(Br)cc1
fMet-Leu-Phe receptor
  Ki: > 66.7 µM (inactive)

## O=C(CN1CCN(S(=O)(=O)c2ccc(Br)cc2)CC1)c1ccc(O)c(O)c1
H9c2
  IC50: > 79 µM (inactive)
[3]
  AC50: 8.3 µM (active)

## CCOC(=O)CSc1nnc(Cn2c(=O)sc3ccccc32)n1-c1ccccc1C
[1]
  IC50: > 122 µM (inactive)
[2]
  IC50: > 122 µM (inactive)

## c1ccc2c3c([nH]c2c1)CCNC3
[4]
  EC50: > 260 µM (inactive)
Cells [5]
  IC50: > 29.9 µM (inactive)
[6]
  EC50: 412 nM (active)
[7]
  IC50: 1.77 µM (active)
Cells [8]
  EC50: > 29.9 µM (inactive)

## CCOc1ccc(C2C(C(=O)c3ccco3)=C(O)C(=O)N2Cc2cccnc2)cc1 (stereo not given)
fMet-Leu-Phe receptor
  Ki: 15.3 µM (inactive)

## COc1ccc(NC(=O)N2CCCCN3[C@H](CO)[C@H](c4ccc(C#CCC(C)C)cc4)[C@H]3C2)cc1
[9]
  AC50: 7.68 µM (active)
[10]
  AC50: 16 µM (active)

## CN1C(=O)c2cc(NC(=O)c3ccc(C(F)(F)F)cc3)ccc2OC[C@@H]2O[C@H](CC(=O)NCc3ccc4c(c3)OCO4)CC[C@H]21
[9]
  AC50: 53.6 µM (active)
[10]
  AC50: 34.9 µM (active)

## COc1ccc(-c2ccc3c(c2)[C@H]2[C@H](CCN2S(=O)(=O)c2ccc(F)cc2)[C@H](CO)N3C)cc1
Paired box protein Pax-8
  AC50: 8.98 µM (active)
[11]
  AC50: 19.3 µM (active)
[12]
  AC50: 34.4 µM (active)
[13]
  AC50: 63.7 µM (active)
[14]
  AC50: 31.8 µM (active)

## CO[C@@H]1CN(C)C(=O)c2cc(NC(=O)Nc3ccc(Cl)c(Cl)c3)ccc2OC[C@@H](C)NC[C@@H]1C
[15]
  AC50: > 52 µM (inactive)
[16]
  AC50: 45.9 µM (active)
[17]
  AC50: > 52 µM (inactive)
[18]
  AC50: 5.7 µM (active)
[19]
  AC50: 18.2 µM (active)

## Cc1cccc(C(=O)Nc2cccc(NC(=O)c3cccc(C)c3)c2)c1
[20]
  IC50: 990 nM (active)

## O=S(=O)(c1cccc(F)c1)N1CC[C@@H]2[C@H](CO)Nc3ccc(-c4cccc(F)c4)cc3[C@@H]21
[15]
  AC50: 42 µM (active)
[16]
  AC50: 27.2 µM (active)
[17]
  AC50: 33.4 µM (active)
[21]
  AC50: > 70 µM (inactive)

## C[C@@H]1CN([C@@H](C)CO)C(=O)c2cc(NC(=O)C3CCCCC3)ccc2O[C@H]1CN(C)Cc1ccc(-c2ccccc2)cc1
[16]
  AC50: > 52 µM (inactive)
[21]
  AC50: 30.9 µM (active)

## Nn1cnnc1N/N=C/c1ccc(Cl)c([N+](=O)[O-])c1
[22]
  EC50: 10.2 µM (active)
[23]
  AC50: 18.1 µM (active)
Protein RecA
  EC50: 10.3 µM (active)
[24]
  IC50: 21.7 µM (active)
[25]
  IC50: 23.2 µM (active)
[26]
  IC50: 81.2 µM (inactive)
